According to PubChem BioAssay (NCI):
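Compound exposure: 48 hours, 5 concentrations, 96-well plates. The concentration for 50% growth inhibition is given as GI50. Definition used: TGI = concentration required for complete inhibition of growth.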

Key:
Test in all cases: growth of human tumour cells (NCI), 48 h
786-0 renal = test system: 786-0 renal
A549 NSCLC = test system: A549 NSCLC
ACHN renal = test system: ACHN renal
CAKI-1 renal = test system: CAKI-1 renal
CCRF-CEM leukemia = test system: CCRF-CEM leukemia
COLO 205 colon = test system: COLO 205 colon
DU-145 prostate = test system: DU-145 prostate
EKVX NSCLC = test system: EKVX NSCLC
HCC-2998 colon = test system: HCC-2998 colon
HCT-116 colon = test system: HCT-116 colon
HL-60(TB) leukemia = test system: HL-60(TB) leukemia
HOP-62 NSCLC = test system: HOP-62 NSCLC
HOP-92 NSCLC = test system: HOP-92 NSCLC
HS 578T breast = test system: HS 578T breast
HT29 colon = test system: HT29 colon
IGROV1 ovarian = test system: IGROV1 ovarian
K-562 leukemia = test system: K-562 leukemia
KM12 colon = test system: KM12 colon
LOX IMVI melanoma = test system: LOX IMVI melanoma
M14 melanoma = test system: M14 melanoma
MALME-3M melanoma = test system: MALME-3M melanoma
MCF7 breast = test system: MCF7 breast
MDA-MB-231 breast = test system: MDA-MB-231 breast
MDA-MB-435 = test system: MDA-MB-435
MDA-N = test system: MDA-N
MOLT-4 leukemia = test system: MOLT-4 leukemia
NCI-H226 lung = test system: NCI-H226 lung
NCI-H23 lung = test system: NCI-H23 lung
NCI-H460 lung = test system: NCI-H460 lung
NCI-H522 lung = test system: NCI-H522 lung
NCI/ADR-RES ovarian = test system: NCI/ADR-RES ovarian
OVCAR-3 ovarian = test system: OVCAR-3 ovarian
OVCAR-4 ovarian = test system: OVCAR-4 ovarian
OVCAR-5 ovarian = test system: OVCAR-5 ovarian
OVCAR-8 ovarian = test system: OVCAR-8 ovarian
PC-3 prostate = test system: PC-3 prostate
RPMI-8226 leukemia = test system: RPMI-8226 leukemia
RXF 393 renal = test system: RXF 393 renal
SF-268 CNS = test system: SF-268 CNS
SF-539 CNS = test system: SF-539 CNS
SK-MEL-2 melanoma = test system: SK-MEL-2 melanoma
SK-MEL-28 melanoma = test system: SK-MEL-28 melanoma
SK-OV-3 ovarian = test system: SK-OV-3 ovarian
SN12C renal = test system: SN12C renal
SNB-19 CNS = test system: SNB-19 CNS
SNB-75 CNS = test system: SNB-75 CNS
SR leukemia = test system: SR leukemia
SW-620 colon = test system: SW-620 colon
T-47D breast = test system: T-47D breast
TK-10 renal = test system: TK-10 renal
U251 CNS = test system: U251 CNS
UACC-62 melanoma = test system: UACC-62 melanoma
UO-31 renal = test system: UO-31 renal
A498 renal = test system: A498 renal
BT-549 breast = test system: BT-549 breast
HCT-15 colon = test system: HCT-15 colon
SF-295 CNS = test system: SF-295 CNS
SK-MEL-5 melanoma = test system: SK-MEL-5 melanoma
UACC-257 melanoma = test system: UACC-257 melanoma

## OC1CN=C2c3ccccc3C(O)(c3ccc(Cl)cc3)N2C1 (centres undefined)
786-0 renal
  TGI: > 100000 nM
A549 NSCLC
  TGI: > 100000 nM
ACHN renal
  TGI: > 100000 nM
CAKI-1 renal
  TGI: > 100000 nM
CCRF-CEM leukemia
  TGI: > 100000 nM
COLO 205 colon
  TGI: 37800 nM
DU-145 prostate
  TGI: > 100000 nM
EKVX NSCLC
  TGI: > 100000 nM
HCC-2998 colon
  TGI: 35500 nM
HCT-116 colon
  TGI: > 100000 nM
HL-60(TB) leukemia
  TGI: > 100000 nM
HOP-62 NSCLC
  TGI: > 100000 nM
HOP-92 NSCLC
  TGI: 94600 nM
HS 578T breast
  TGI: > 100000 nM
HT29 colon
  TGI: > 100000 nM
IGROV1 ovarian
  TGI: > 100000 nM
K-562 leukemia
  TGI: > 100000 nM
KM12 colon
  TGI: > 100000 nM
LOX IMVI melanoma
  TGI: > 100000 nM
M14 melanoma
  TGI: 30400 nM
MALME-3M melanoma
  TGI: > 100000 nM
MCF7 breast
  TGI: > 100000 nM
MDA-MB-231 breast
  TGI: > 100000 nM
MDA-MB-435
  TGI: > 100000 nM
MDA-N
  TGI: > 100000 nM
MOLT-4 leukemia
  TGI: > 100000 nM
NCI-H226 lung
  TGI: > 100000 nM
NCI-H23 lung
  TGI: > 100000 nM
NCI-H460 lung
  TGI: > 100000 nM
NCI-H522 lung
  TGI: > 100000 nM
NCI/ADR-RES ovarian
  TGI: > 100000 nM
OVCAR-3 ovarian
  TGI: > 100000 nM
OVCAR-4 ovarian
  TGI: > 100000 nM
OVCAR-5 ovarian
  TGI: > 100000 nM
OVCAR-8 ovarian
  TGI: > 100000 nM
PC-3 prostate
  TGI: > 100000 nM
RPMI-8226 leukemia
  TGI: > 100000 nM
RXF 393 renal
  TGI: > 100000 nM
SF-268 CNS
  TGI: > 100000 nM
SF-539 CNS
  TGI: > 100000 nM
SK-MEL-2 melanoma
  TGI: > 100000 nM
SK-MEL-28 melanoma
  TGI: > 100000 nM
SK-OV-3 ovarian
  TGI: > 100000 nM
SN12C renal
  TGI: > 100000 nM
SNB-19 CNS
  TGI: > 100000 nM
SNB-75 CNS
  TGI: 91900 nM
SR leukemia
  TGI: > 100000 nM
SW-620 colon
  TGI: > 100000 nM
T-47D breast
  TGI: > 100000 nM
TK-10 renal
  TGI: 65700 nM
U251 CNS
  TGI: > 100000 nM
UACC-62 melanoma
  TGI: > 100000 nM
UO-31 renal
  TGI: > 100000 nM

## Cc1ccc(-c2cc3nc(-c4ccccc4)nc(C(Cl)Cl)n3n2)cc1
786-0 renal
  GI50: 1060 nM
  TGI: 2370 nM
A498 renal
  GI50: 672 nM
  TGI: 1390 nM
A549 NSCLC
  GI50: 927 nM
  TGI: 2630 nM
ACHN renal
  GI50: 737 nM
  TGI: 1410 nM
BT-549 breast
  GI50: 15200 nM
  TGI: > 50000 nM
CAKI-1 renal
  GI50: 668 nM
  TGI: 1330 nM
CCRF-CEM leukemia
  GI50: > 50000 nM
  TGI: > 50000 nM
COLO 205 colon
  GI50: 1060 nM
  TGI: 2340 nM
DU-145 prostate
  GI50: 573 nM
  TGI: 1200 nM
EKVX NSCLC
  GI50: 752 nM
  TGI: 1510 nM
HCC-2998 colon
  GI50: 891 nM
  TGI: 1690 nM
HCT-116 colon
  GI50: 689 nM
  TGI: 1610 nM
HCT-15 colon
  GI50: 958 nM
  TGI: 3130 nM
HL-60(TB) leukemia
  GI50: 1390 nM
  TGI: 4060 nM
HOP-62 NSCLC
  GI50: 666 nM
  TGI: 2110 nM
HOP-92 NSCLC
  GI50: 725 nM
  TGI: 1620 nM
HS 578T breast
  GI50: 932 nM
  TGI: 2310 nM
HT29 colon
  GI50: 1200 nM
  TGI: 5320 nM
IGROV1 ovarian
  GI50: 1430 nM
  TGI: > 50000 nM
K-562 leukemia
  GI50: 1760 nM
  TGI: > 50000 nM
KM12 colon
  GI50: 701 nM
  TGI: 1960 nM
LOX IMVI melanoma
  GI50: > 50000 nM
  TGI: > 50000 nM
M14 melanoma
  GI50: > 50000 nM
  TGI: > 50000 nM
MALME-3M melanoma
  GI50: 36100 nM
  TGI: > 50000 nM
MCF7 breast
  GI50: 845 nM
  TGI: 4550 nM
MDA-MB-231 breast
  GI50: 628 nM
  TGI: 1590 nM
MDA-MB-435
  GI50: 1140 nM
  TGI: 2710 nM
MOLT-4 leukemia
  GI50: > 50000 nM
  TGI: > 50000 nM
NCI-H226 lung
  GI50: > 50000 nM
  TGI: > 50000 nM
NCI-H23 lung
  GI50: 1950 nM
  TGI: > 50000 nM
NCI-H460 lung
  GI50: 450 nM
  TGI: 1420 nM
NCI-H522 lung
  GI50: > 50000 nM
  TGI: > 50000 nM
NCI/ADR-RES ovarian
  GI50: 789 nM
  TGI: 2420 nM
OVCAR-3 ovarian
  GI50: 737 nM
  TGI: 1470 nM
OVCAR-4 ovarian
  GI50: 671 nM
  TGI: 1730 nM
OVCAR-5 ovarian
  GI50: 1190 nM
  TGI: 3310 nM
OVCAR-8 ovarian
  GI50: 1160 nM
  TGI: 4740 nM
PC-3 prostate
  GI50: 781 nM
  TGI: 2050 nM
RPMI-8226 leukemia
  GI50: 802 nM
  TGI: 3450 nM
RXF 393 renal
  GI50: 845 nM
  TGI: 1880 nM
SF-268 CNS
  GI50: 1110 nM
  TGI: 3530 nM
SF-295 CNS
  GI50: 955 nM
  TGI: 1950 nM
SF-539 CNS
  GI50: 911 nM
  TGI: 2190 nM
SK-MEL-2 melanoma
  GI50: 2510 nM
  TGI: 19700 nM
SK-MEL-28 melanoma
  GI50: 1540 nM
  TGI: 5320 nM
SK-MEL-5 melanoma
  GI50: > 50000 nM
  TGI: > 50000 nM
SK-OV-3 ovarian
  GI50: 1520 nM
  TGI: 18600 nM
SN12C renal
  GI50: 2920 nM
  TGI: > 50000 nM
SNB-19 CNS
  GI50: 759 nM
  TGI: 1730 nM
SNB-75 CNS
  GI50: 295 nM
  TGI: 1040 nM
SR leukemia
  GI50: 3730 nM
  TGI: > 50000 nM
SW-620 colon
  GI50: 851 nM
  TGI: 2290 nM
T-47D breast
  GI50: 718 nM
  TGI: 2300 nM
TK-10 renal
  GI50: 944 nM
  TGI: 1800 nM
U251 CNS
  GI50: 419 nM
  TGI: 1600 nM
UACC-257 melanoma
  GI50: 1530 nM
  TGI: 6680 nM
UACC-62 melanoma
  GI50: 933 nM
  TGI: 2100 nM
UO-31 renal
  GI50: 719 nM
  TGI: 1410 nM

## C/C(=C\CCC1=CC(=O)OC1)CC[C@@H]1[C@H]2C(=O)CC(C)[C@@]3(C)CC[C@]1(C)[C@@]23C (some centres undefined)
786-0 renal
  TGI: > 10000 nM
A549 NSCLC
  TGI: > 10000 nM
CAKI-1 renal
  TGI: > 10000 nM
CCRF-CEM leukemia
  TGI: > 10000 nM
COLO 205 colon
  TGI: > 10000 nM
DU-145 prostate
  TGI: > 10000 nM
EKVX NSCLC
  TGI: > 10000 nM
HCC-2998 colon
  TGI: > 10000 nM
HCT-15 colon
  TGI: > 10000 nM
HL-60(TB) leukemia
  TGI: > 10000 nM
HOP-62 NSCLC
  TGI: > 10000 nM
HT29 colon
  TGI: > 10000 nM
IGROV1 ovarian
  TGI: > 10000 nM
K-562 leukemia
  TGI: > 10000 nM
KM12 colon
  TGI: > 10000 nM
LOX IMVI melanoma
  TGI: > 10000 nM
M14 melanoma
  TGI: > 10000 nM
MALME-3M melanoma
  TGI: > 10000 nM
MCF7 breast
  TGI: > 10000 nM
MDA-MB-231 breast
  TGI: > 10000 nM
MDA-N
  TGI: > 10000 nM
MOLT-4 leukemia
  TGI: > 10000 nM
NCI-H23 lung
  TGI: > 10000 nM
OVCAR-8 ovarian
  TGI: > 10000 nM
PC-3 prostate
  TGI: > 10000 nM
RPMI-8226 leukemia
  TGI: > 10000 nM
RXF 393 renal
  TGI: > 10000 nM
SF-268 CNS
  TGI: > 10000 nM
SF-295 CNS
  TGI: > 10000 nM
SK-MEL-28 melanoma
  TGI: > 10000 nM
SK-MEL-5 melanoma
  TGI: > 10000 nM
SK-OV-3 ovarian
  TGI: > 10000 nM
SN12C renal
  TGI: > 10000 nM
SNB-75 CNS
  TGI: > 10000 nM
SR leukemia
  TGI: > 10000 nM
SW-620 colon
  TGI: > 10000 nM
T-47D breast
  TGI: > 10000 nM
TK-10 renal
  TGI: > 10000 nM
UACC-257 melanoma
  TGI: > 10000 nM
UACC-62 melanoma
  TGI: > 10000 nM
